Read-outs that look alike come from different tables or passages of the source.

A short description of this data set: Active ingredient remaining on foliage after rainfall.
Where [1] appears, read: sprayed with the invention as adjuvant vs fungicide alone, 27 mm rainfall 2009, 24 mm 2010.

As to `O=[N+]([O-])c1cc(C(F)(F)F)c(Cl)c([N+](=O)[O-])c1Nc1ncc(C(F)(F)F)cc1Cl` [fluazinam], under setting [1], the “rain fastness on leaves (residues remaining on foliage after rainfall)” value was “Improved rain fastness”.
Regarding `COc1ccc(C(=CC(=O)N2CCOCC2)c2ccc(Cl)cc2)cc1OC` [dimethomorph], the “rain fastness on leaves (residues remaining on foliage after rainfall)” value was “Improved rain fastness”.
In the case of Mancozeb, under setting [1], the “rain fastness on leaves (residues remaining on foliage after rainfall)” value is given as “Improved rain fastness”.

Values taken from US20230159667A1, “BIOCOMPATIBLE CARRIER FORMULATION FOR APPLICATIONS IN PLANT PROTECTION AND PLANT GROWTH STIMULATION OR IN COSMETICS AND PERSONAL CARE ON THE BASIS OF MODIFIED STARCH” (Amynova Polymers GmbH, priority 2020, published 2023).
